{"source": "patent US9238812B2", "about": "“Agent for suppressing expression of dominant mutant gene” (LSIP, LLC, priority 2010, dated 2016)", "key": {"PC3 cells": {"test_system": "PC3 cells", "assay": "Cell growth and survival activity evaluation (1), MTS/NADH", "assay_type": "cell-based, human", "settings": "PC3 cells after siRNA electroporation; compared with No siRNA and siControl", "description": "PC3 cells were cultured in the same way as in “Example 2(1)”.\nElectroporation was performed in the same way as in “Example 2(2)”.\nThe cells were cultured (cell density: approximately 3×10^4 cells/well) in a 96-well culture plate using the culture solution of the paragraph (1). One day and 4 days later, the cells were subjected to each evaluation experiment. si747/49-3D19 was also subjected to similar evaluation experiments, together with a control, 2 days and 6 days after the cell culture.\nIn order to evaluate the cell growth and survival activity of PC3 cells after the introduction of si747/49-3D19, MTS reductive effect induced by nicotinamide adenine dinucleotide (NADH) contained in live cells was measured using CellTiter 96 AQueous Non-Radioactive Cell Proliferation Assay (Promega Corp.). The experimental procedures followed the protocol included in the product. Absorbance was measured using BenchMark Plus (Bio-Rad Laboratories, Inc.). The negative controls used were the same two controls (No siRNA and siControl) as in the cell growth ability assay."}, "wild-type EGFR gene": {"test_system": "wild-type EGFR gene", "assay": "RT-PCR analysis of wild-type EGFR expression in PC3 cells after siRNA electroporation", "assay_type": "cell-based, human", "settings": "siRNA 5 μM by electroporation, 24 hours, PCR and electrophoresis", "description": "The human non-small cell lung cancer-derived cell line PC3 cells were cultured at 37° C. under 5% CO2 using an EMEM culture solution (Wako Pure Chemical Industries, Ltd.) containing 10% fetal bovine serum (FBS; Invitrogen Corp.).\nThe cells cultured in the preceding paragraph (1) were dispersed by trypsin digestion, then collected by centrifugation (120 G, 5 min.) and suspended at a concentration of approximately 1×10^6 cells in 100 μL of an electroporation buffer (Amaxa Cell Line Nucleofector Solution V, Amaxa Biosystems GmbH) containing each EGFR-siRNA (final concentration: 5 μM). These 3 samples for electroporation thus prepared were subjected to nucleic acid introduction (one of the samples was a control experimental group without nucleic acid introduction) by electroporation (program: U-005, gene introduction system Nucleofector, Amaxa Biosystems GmbH) according to the protocol included therein.\nThe cells of these 3 groups were separately cultured in a 6-well culture plate using the culture solution of the paragraph (1) and collected 24 hours later. […]\nThe cDNAs obtained in the preceding paragraph (3) were analyzed by PCR using AmpliTaq Gold DNA Polymerase (Applied Biosystems, Inc.) and primers specifically amplifying the EGFR mutation sites and their neighboring sequences. […] Then, the PCR amplification products were analyzed by electrophoresis (7% polyacrylamide gel, 100 mA, 1 hr.)."}, "[1]": {"test_system": "PC3 cells subcutaneously transplanted to nude mice", "assay": "Mouse model with subcutaneous tumor by xenoectopic transplantation of PC3 cells, intratumoral EGFR-siRNA", "assay_type": "in vivo, nude mouse (BALB/cAJcl-nu/nu)", "settings": "single 1.0 mg/kg dose directly to the tumor with atelocollagen, vs atelocollagen only and siControl; for wet weight of the tumor: 3rd week; for tumor volume (swelling of the subcutaneous tumor): up to 3rd week", "description": "PC3 cells were subcutaneously transplanted to nude mice to prepare mouse models with subcutaneous tumor. The mouse models were used to test tumor growth inhibitory effects by the administration of each EGFR-siRNA.\nThe cultured PC3 cells were dispersed by trypsin digestion, then collected by centrifugation (120 G, 5 min.), and resuspended in a serum- and antibiotic-free culture solution (RPMI-1640, Wako Pure Chemical Industries, Ltd.) to adjust the number of cells to 1×10^7 cells/mL. This cell suspension and BD Matrigel Basement Membrane Matrix (Becton, Dickinson and Company) were mixed in equal amounts to adjust the number of cells to 5×10^6 cells/mL. This suspension was subcutaneously administered at a dose of 100 μL (0.5×10^6 cells) to the right flank region of each immunodeficient model nude mouse (5 weeks old, BALB/cAJcl-nu/nu, CLEA Japan, Inc.).\nThe complexing procedures followed the protocol included therein. The final concentration of each EGFR-siRNA (si747/49-3D 19 or si747/49(A)-8D 19) was set to 0.1 mg/mL.\nOne week after PC3 cell transplantation (6 weeks old), tumor volume was calculated from tumor diameters. Three samples prepared above, i.e., the siRNA-free atelocollagen solution and 20 μg/200 μL solutions of siControl and each EGFR-siRNA were separately administered once at a dose of 1.0 mg/kg body weight directly to the tumor that reached approximately 50 mm^3. The tumor volume was calculated according to the following equation: Volume=(minor axis)^2×(major axis)×0.5\nIn the 3rd week after the administration of the siRNA, etc. (9 weeks old) (FIG. 25A, si747/49-3D19; FIG. 28A, si747/49(A)-8D19), the tumor volume was calculated according to the equation. In addition, the tumor was taken out of each mouse (FIG. 25B, si747/49-3D19; FIG. 28B, si747/49(A)-8D19), and its wet weight was measured."}}, "note": "r = 2'-OH (RNA)"}
{"substance": "si747/49(A)-8D19: siRNA against EGFR del(L747-E749)-A750P(A) mutant gene; ss SEQ ID NO 139, as SEQ ID NO 140, 3′ UU added (sense CUAUCAAGGAACCAACAUC; antisense GAUGUUGCUUCCUUGAUAG; RNA, 3' rUrU, backbone not given here)", "values": [{"measurement": "cell growth and survival activity (cell survival rate), NADH activity", "setting": "PC3 cells", "value": "significantly suppressed the growth rates of the cells or reduced their survival rates"}, {"measurement": "expression of the wild-type EGFR gene", "setting": "wild-type EGFR gene", "value": "without suppressing"}, {"measurement": "wet weight of the tumor", "setting": "[1]", "value": "significantly reduced"}, {"measurement": "tumor volume (swelling of the subcutaneous tumor)", "setting": "[1]", "value": "significantly suppress the swelling of the subcutaneous tumor"}]}
{"substance": "si747/49-3D19: siRNA against EGFR del(L747-E749)-A750P(G) mutant gene; ss SEQ ID NO 55, as SEQ ID NO 56, 3′ UU added (sense GUCGCUAUCAAGGAGCCAA; antisense UUGGCUCCUUGAUAGCGAC; RNA, 3' rUrU, backbone not given here; listed as Homo sapiens)", "values": [{"measurement": "cell growth and survival activity (cell survival rate), NADH activity", "setting": "PC3 cells", "value": "significantly suppressed the growth rates of the cells or reduced their survival rates"}, {"measurement": "expression of the wild-type EGFR gene", "setting": "wild-type EGFR gene", "value": "without suppressing"}, {"measurement": "wet weight of the tumor", "setting": "[1]", "value": "significantly reduced"}, {"measurement": "tumor volume (swelling of the subcutaneous tumor)", "setting": "[1]", "value": "significantly suppress the swelling of the subcutaneous tumor"}]}
